Assay: wn = mass fraction of the nth substance listed
Conditions: 100 kPa, Liquid, transient hot wire

CCCCCCCCCCCC(=O)OC [methyl dodecanoate] + CCCO
Conditions	thermal conductivity [W/m/K]
287.68 K, w1 = 0.6993	0.1497
287.9 K, w1 = 0.298	0.1522
287.91 K, w1 = 0.1	0.1542
288 K, w1 = 0.4998	0.1509
288.06 K, w1 = 0.8996	0.1484
297.73 K, w1 = 0.6993	0.1473
297.79 K, w1 = 0.1	0.1517
297.85 K, w1 = 0.4998	0.1484
297.85 K, w1 = 0.8996	0.1467
297.93 K, w1 = 0.298	0.1494
307.66 K, w1 = 0.1	0.1492
307.76 K, w1 = 0.4998	0.1457
307.83 K, w1 = 0.298	0.1474
307.89 K, w1 = 0.8996	0.1445
308.03 K, w1 = 0.6993	0.1452
317.53 K, w1 = 0.298	0.1451
317.62 K, w1 = 0.1	0.1474
317.67 K, w1 = 0.4998	0.1436
317.86 K, w1 = 0.6993	0.1429
318.02 K, w1 = 0.8996	0.1422
327.34 K, w1 = 0.298	0.1424
327.67 K, w1 = 0.1	0.1446
327.67 K, w1 = 0.4998	0.1412
327.68 K, w1 = 0.8996	0.1398
328.03 K, w1 = 0.6993	0.1405
337.22 K, w1 = 0.1	0.1423
337.4 K, w1 = 0.298	0.14
337.64 K, w1 = 0.4998	0.1391
337.82 K, w1 = 0.6993	0.1384
337.85 K, w1 = 0.8996	0.1377
347.19 K, w1 = 0.1	0.139
347.24 K, w1 = 0.298	0.1374
347.52 K, w1 = 0.4998	0.1368
347.82 K, w1 = 0.6993	0.1362
347.93 K, w1 = 0.8996	0.135
357.25 K, w1 = 0.1	0.1365
357.44 K, w1 = 0.298	0.1351
357.79 K, w1 = 0.4998	0.1344
357.91 K, w1 = 0.6993	0.1337
357.93 K, w1 = 0.8996	0.1326

CCCCCCCCCCCC(=O)OC [methyl dodecanoate] + CCCCCO
Conditions	thermal conductivity [W/m/K]
287.79 K, w1 = 0.6756	0.1488
287.86 K, w1 = 0.2997	0.1497
287.92 K, w1 = 0.5029	0.1493
288 K, w1 = 0.1021	0.1503
288.01 K, w1 = 0.8983	0.1482
297.82 K, w1 = 0.1021	0.1486
297.86 K, w1 = 0.5029	0.1475
297.95 K, w1 = 0.6756	0.1469
298.07 K, w1 = 0.2997	0.148
298.1 K, w1 = 0.8983	0.1456
307.72 K, w1 = 0.1021	0.1468
307.78 K, w1 = 0.6756	0.145
307.8 K, w1 = 0.5029	0.1453
307.84 K, w1 = 0.2997	0.1455
307.9 K, w1 = 0.8983	0.1441
317.72 K, w1 = 0.1021	0.1441
317.72 K, w1 = 0.2997	0.1435
317.8 K, w1 = 0.6756	0.1424
317.85 K, w1 = 0.5029	0.1429
317.85 K, w1 = 0.8983	0.1419
327.58 K, w1 = 0.1021	0.1422
327.68 K, w1 = 0.2997	0.1412
327.7 K, w1 = 0.6756	0.1407
327.72 K, w1 = 0.5029	0.141
327.87 K, w1 = 0.8983	0.1397
337.42 K, w1 = 0.1021	0.1399
337.53 K, w1 = 0.2997	0.139
337.67 K, w1 = 0.5029	0.1389
337.76 K, w1 = 0.6756	0.1385
337.85 K, w1 = 0.8983	0.1373
347.5 K, w1 = 0.2997	0.137
347.65 K, w1 = 0.1021	0.138
347.66 K, w1 = 0.5029	0.1368
347.7 K, w1 = 0.8983	0.1352
347.78 K, w1 = 0.6756	0.1356
357.16 K, w1 = 0.1021	0.1364
357.47 K, w1 = 0.2997	0.135
357.65 K, w1 = 0.5029	0.1348
357.73 K, w1 = 0.6756	0.1335
357.79 K, w1 = 0.8983	0.1332

CCCCCCCCCCCC(=O)OC [methyl dodecanoate] + CCCCO
Conditions	thermal conductivity [W/m/K]
287.91 K, w1 = 0.3009	0.1499
287.94 K, w1 = 0.1013	0.1515
287.95 K, w1 = 0.5027	0.1492
288.07 K, w1 = 0.6997	0.1488
288.14 K, w1 = 0.8996	0.1485
297.76 K, w1 = 0.1013	0.1489
297.9 K, w1 = 0.6997	0.1469
297.92 K, w1 = 0.5027	0.1471
297.95 K, w1 = 0.3009	0.1475
298.02 K, w1 = 0.8996	0.1463
307.79 K, w1 = 0.1013	0.1465
307.81 K, w1 = 0.3009	0.1457
307.83 K, w1 = 0.5027	0.1452
307.96 K, w1 = 0.8996	0.1441
307.99 K, w1 = 0.6997	0.1445
317.67 K, w1 = 0.3009	0.1434
317.75 K, w1 = 0.1013	0.144
317.8 K, w1 = 0.5027	0.1426
317.83 K, w1 = 0.8996	0.1422
317.88 K, w1 = 0.6997	0.1424
327.6 K, w1 = 0.1013	0.1419
327.69 K, w1 = 0.3009	0.1411
327.94 K, w1 = 0.5027	0.14
327.94 K, w1 = 0.6997	0.1398
328.11 K, w1 = 0.8996	0.139
337.45 K, w1 = 0.3009	0.1386
337.47 K, w1 = 0.1013	0.1395
337.93 K, w1 = 0.5027	0.1378
337.95 K, w1 = 0.8996	0.1371
337.96 K, w1 = 0.6997	0.1375
347.23 K, w1 = 0.1013	0.1368
347.28 K, w1 = 0.3009	0.1361
347.67 K, w1 = 0.6997	0.1354
347.73 K, w1 = 0.5027	0.1358
347.86 K, w1 = 0.8996	0.135
357.25 K, w1 = 0.3009	0.1333
357.28 K, w1 = 0.1013	0.1342
357.71 K, w1 = 0.8996	0.1322
357.82 K, w1 = 0.5027	0.133
357.87 K, w1 = 0.6997	0.1327

From the NIST ThermoML archive (doi:10.1016/j.jct.2019.105881)
